A word on the Kd: it is the constant that tells how readily two partners part at equilibrium. A low value points to a tighter complex.

The values that follow come from US9234005B2 (priority 2011, dated 2016).

Assay [1] deals with T1, PTPN4-PDZ (Homo sapiens, UniProt P29074, S499G).
T1 sequence (P29074 499-604 S499G): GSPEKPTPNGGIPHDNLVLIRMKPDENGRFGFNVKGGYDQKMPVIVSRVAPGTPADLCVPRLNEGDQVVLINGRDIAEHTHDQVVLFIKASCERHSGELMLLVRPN
Nature of the assay: biochemical. Details: PTPN4-PDZ (residues G499-N604, G499 being a non-native residue due to the TEV cleavage site); GST (N, cleaved yes); made in house; host or cells: Escherichia coli BL21 (DE3) star. The assay is classed as binding.

A further assay deals with U373MG astrocytoma cells. The assay is classed as cell-based, human.
For assay [2], the target named is T1, PTPN4-PDZ. Nature of the assay: biochemical.
Assay [3] deals with neuroblastoma cell line SK-N-SH. Conditions: cited from earlier work.
Where [4] appears, read: Kd for PTPN4-PDZ (dissociation constant, text).

Where two headings read alike, the source gives them in different places. No end group written: not given here.

On PTPN4-PDZ [1] (setting [4]), LNLGNDPDRGTSI [GluD2-13, LNLGNDPDRGTSI] came in with a Kd of 128 µM.
For “SNRRVYKKMPSIESDV-OH [GluN2A-16, SNRRVYKKMPSIESDV]”, in the assay with U373MG astrocytoma cells, the “cell death (% of dead cells among peptide loaded cells)” value is reported as 29% and the “increase of cell death compared to Cyto13-att” value is “two-fold increase”. Also, on PTPN4-PDZ [1], the Kd was 42 µM and the “fold increase in affinity for PTPN4-PDZ compared to Cyto13-att (Cyto-att)” value is listed as “four-fold increase”.
Take SWARVSKETPL [SEQ ID NO: 4, SWARVSKETPL]: on PTPN4-PDZ [1] (Kd, affinity for PTPN4-PDZ), the dissociation constant (Kd) came out at 1.58 µM.
With SWEDRETEV [SEQ ID NO: 7, SWEDRETEV], binding on PTPN4-PDZ [2] was put at a Kd of 3.88 µM.
Regarding SWEERETEF [SEQ ID NO: 6, SWEERETEF], the equilibrium dissociation constant (Kd) on PTPN4-PDZ [2] stood at 2.52 µM.
As to SWEERETEV [SEQ ID NO: 3, SWEERETEV], the dissociation constant Kd at PTPN4-PDZ [2] came out at 1.35 µM.
At PTPN4-PDZ [1] (Kd, affinity for PTPN4-PDZ), SWELYKSEGDARL [DARL-13, SWELYKSEGDARL] displayed a Kd of 1280 µM.
Consider SWERRETEV [SEQ ID NO: 5, SWERRETEV], for which the equilibrium dissociation constant (Kd) on PTPN4-PDZ [2] turned out to be 2 µM.
For the substance SWESHKSGG [Cyto9-Δ], in the assay on U373MG astrocytoma cells, the “cell death (% of dead cells among peptide loaded cells)” value is 7%. In addition, on PTPN4-PDZ [1], the “interaction with PTPN4-PDZ, in words” value is given as “does not interact with PTPN4-PDZ”. Besides, in assay [3], the “induction of cell death, in words” value is given as “do not”.
Regarding “SWESHKSGGETRL [Cyto13-att, SWESHKSGGETRL]”, the “cell death (% of dead cells among peptide loaded cells)” value with U373MG astrocytoma cells is on record as “more than 14%”. The substance further came in with an equilibrium dissociation constant (Kd) on PTPN4-PDZ [1] (Kd, affinity for PTPN4-PDZ) of 157 µM. In addition, the “induction of cell death, in words” value in assay [3] is reported as “induces cell death”.
For “SWESHKSGGQTRL [Cyto13-vir, SWESHKSGGQTRL]”, in the assay on U373MG astrocytoma cells, the “cell death (% of dead cells among peptide loaded cells)” value is on record as 8%. For the same substance, on PTPN4-PDZ [1], the “fold difference in Kd, Cyto13-vir versus Cyto13-att” value was determined as 4 fold and the “ΔΔG0=RT ln(Kd(Cyto13-vir)/Kd(Cyto13-att))” value came out at 0.76 kcal·mol^−1. At PTPN4-PDZ [1] (setting [4]), this substance returned a Kd of 560 µM. Moreover, the Kd at PTPN4-PDZ [1] (Kd, affinity for PTPN4-PDZ) amounted to 568 µM. Further, the “induction of cell death, in words” value in assay [3] is reported as “do not”.
For SWESYRSGGEIRL [EIRL-13, SWESYRSGGEIRL], the “interaction with PTPN4-PDZ, in words” value on PTPN4-PDZ [1] is given as “low affinity”. The Kd at PTPN4-PDZ [1] (Kd, affinity for PTPN4-PDZ) is 1170 µM.
Regarding shepherdin, the “glioblastoma death, in words” value in the assay on U373MG astrocytoma cells is listed as “in a range similar to those obtained with Cyto13-att”.
